From US9018242B2, “Salt form of tyrosine kinase inhibitor” (Jiangsu Simcere Pharmaceutical R&D Co., Ltd, priority 2011, dated 2015)
Converted amounts (≈) assume the structure as drawn.

Legend:
[1] = Plasma exposure (AUC) in rats after gavage administration; format: in vivo; settings: rat, po, male SD rats, 10 mg/kg (based on pharmaceutically active compound), salts dissolved in pure water, active compound as suspension in 0.5% CMC, up to 24 h
Experimental: Laboratory animal: male SD rats
Dosage: 10 mg/kg (based on pharmaceutically active compound)
Formulation for salts: dissolving in pure water
(§1) Formulation for pharmaceutically active compound: suspension in CMC (carboxymethylcellulose), 0.5%
Animal Grouping and Testing Course:
Each group includes three male rats having a weight of 180 to 210 g. Gavage administration was performed; the blood was collected at point of time: 5 min, 15 min, 30 min, 45 min, 1 h, 2 h, 4 h, 6 h, 10 h and 24 h; about 250 μl blood was collected from orbital venous plexus into a heparin-containing tube, centrifuged, and 100 μl plasma was used for LC-MS analysis.

[2] = Solubility in water by HPLC; format: physicochemical; settings: purified water, 25° C.; for solubility at 30 min: thermodynamic from solid
Experimental: Liquid chromatograph: Agilent 1200 HPLC system (diode array detector), ChemStation
Mobile phase: acetonitrile/water
Detection wavelength: 264 nm
About 100 mg sample to be tested was precisely weighed and placed into a 100 ml graduated flask at 25° C.; an appropriate amount of solvent [acetonitrile/water (80:20)] was added to dissolve the sample under ultrasonic sound, and the solution was diluted to a given scale and shaken up; 10 μl resulting solution was precisely measured and loaded into the liquid chromatograph, the chromatogram was recorded, and the peak area Scontrol was measured.
10 ml purified water was measured and placed into a 25 ml Kjeldahl flask. The sample to be tested was gradually added at 25° C. until an insoluble solid appeared in the solution. The solution was treated under ultrasonic sound for 30 min and the insoluble solid was filtered off. 10 μl filtrate was precisely weighed and loaded into the liquid chromatograph, the chromatogram was recorded, and the peak area Stest was measured.

[3] = Hygroscopicity measurement (weight gain); format: physicochemical; settings: 25±1° C., relative humidity 80±2%, 24 hours
Experimental: The method for measuring the hygroscopicity may include: placing a certain amount of a sample to be tested into a precisely weighed glass weighing bottle (m1) with a plug and precisely weighing (m2); placing the opened weighing bottle into a thermostatic dryer (with saturated ammonium sulfate solution placed at the bottom, with a relative humidity of 80±2%) at 25±1° C. for 24 hours; covering the weighing bottle with the plug and precisely weighing (m3), and calculating the percent of weight gain of the sample to be tested according to the following equation: […]
The measurement method includes: placing a certain amount of sample to be tested into a precisely weighed glass weighing bottle (m1) with a plug and precisely weighing (m2); placing the opened weighing bottle in a thermostated dryer (with saturated ammonium sulfate solution placed at the bottom, with a relative humidity of 80±2%) at 25±1° C. for 24 hours; covering the weighing bottle with the plug and precisely weighing (m3).
Characterization of the hygroscopicity and definition of the hygroscopic weight gain:
Deliquescence: sufficient moisture was absorbed to form liquid;
Slight hygroscopicity: hygroscopic weight gain was less than 2% and not less than 0.2%: […]

[4] = tested on: human colon cancer HT-29 xenografts; assay: Therapeutic effect on human colon cancer HT-29 xenografts in nude mice; format: in vivo, BALB/cA-nude mice; settings: 40 mg/kg (based on pharmaceutically active compound), gavage for 21 days, L-malate in pure water, active compound as suspension in 0.5% CMC
Experimental: Laboratory animal: BALB/cA-nude mice, 6-7 weeks, ♀
Dosage: 40 mg/kg (based on pharmaceutically active compound)
Formulation for L-malate: dissolving in pure water
as §1
Nude mice were subcutaneously inoculated with human colon cancer HT-29 cells. After the tumor grew to a size of 150 to 250 mm^3, the animals were randomly divided into three groups (d0). The animals were continuously administered through gavage for 21 days, and the tumor volume was measured 2 to 3 times per week. The tumor volume (V) was calculated according to the equation: V=1/2×a×b^2, where a and b represent length and width respectively.
The relative proliferation of tumor=T/C(%)=(T−T0)/(C−C0)×100, where T and C are the tumor volumes at the end of experiment, T0 and C0 are the tumor volumes at the start of experiment; the tumor inhibition rate=1−T/C(%).

Row | Compound | AUC(0-t) [1] [ng·h/mL] | solubility at 30 min [2] [mg/mL] | Hygroscopicity [3] | Tumor Inhibition Rate [4] [%] | Solubility in Water [2] [mg/mL]
1 | CCN(CC)CCNC(=O)c1c(C)[nH]c2c1CCC/C2=C1/C(=O)Nc2ccc(F)cc21 [Pharmaceutically active compound, (Z)—N-[2-(diethylamino)ethyl]-2-methyl-7-(1,2-dihydro-5-fluoro-2-oxo-3H-indol-3-ylidene)-4,5,6,7-tetrahydro-1H-indol-3-carboxamide] | 128 | 0.02 (≈ 47.1 µM) | Almost no hygroscopicity | 40 | –
2 | CCN(CC)CCNC(=O)c1c(C)[nH]c2c1CCC/C2=C1/C(=O)Nc2ccc(F)cc21.CS(=O)(=O)O [Methanesulfonate, (Z)—N-[2-(diethylamino)ethyl]-2-methyl-7-(1,2-dihydro-5-fluoro-2-oxo-3H-indol-3-ylidene)-4,5,6,7-tetrahydro-1H-indol-3-carboxamide methanesulfonate] | – | 12.3 | Strong hygroscopicity (hygroscopic weight gain was not less than 15%) | – | –
3 | CCN(CC)CCNC(=O)c1c(C)[nH]c2c1CCC/C2=C1/C(=O)Nc2ccc(F)cc21.Cl [Hydrochloride, (Z)—N-[2-(diethylamino)ethyl]-2-methyl-7-(1,2-dihydro-5-fluoro-2-oxo-3H-indol-3-ylidene)-4,5,6,7-tetrahydro-1H-indol-3-carboxamide hydrochloride] | 185 | 22.8 | Almost no hygroscopicity | – | –
4 | CCN(CC)CCNC(=O)c1c(C)[nH]c2c1CCC/C2=C1/C(=O)Nc2ccc(F)cc21.O=S(=O)(O)O [Sulfate, (Z)—N-[2-(diethylamino)ethyl]-2-methyl-7-(1,2-dihydro-5-fluoro-2-oxo-3H-indol-3-ylidene)-4,5,6,7-tetrahydro-1H-indol-3-carboxamide sulfate] | – | 0.236 | Slight hygroscopicity (hygroscopic weight gain was less than 2% and not less than 0.2%) | – | –
5 | CCN(CC)CCNC(=O)c1c(C)[nH]c2c1CCC/C2=C1/C(=O)Nc2ccc(F)cc21.O=P(O)(O)O [Phosphate, (Z)—N-[2-(diethylamino)ethyl]-2-methyl-7-(1,2-dihydro-5-fluoro-2-oxo-3H-indol-3-ylidene)-4,5,6,7-tetrahydro-1H-indol-3-carboxamide phosphate] | 322 | 29.7 | Slight hygroscopicity (hygroscopic weight gain was less than 2% and not less than 0.2%) | – | –
6 | Br.CCN(CC)CCNC(=O)c1c(C)[nH]c2c1CCC/C2=C1/C(=O)Nc2ccc(F)cc21 [Hydrobromate, (Z)—N-[2-(diethylamino)ethyl]-2-methyl-7-(1,2-dihydro-5-fluoro-2-oxo-3H-indol-3-ylidene)-4,5,6,7-tetrahydro-1H-indol-3-carboxamide hydrobromate] | – | – | Almost no hygroscopicity | – | 3.5922
7 | CCN(CC)CCNC(=O)c1c(C)[nH]c2c1CCC/C2=C1/C(=O)Nc2ccc(F)cc21.O=C(O)/C=C\C(=O)O [Maleate, (Z)—N-[2-(diethylamino)ethyl]-2-methyl-7-(1,2-dihydro-5-fluoro-2-oxo-3H-indol-3-ylidene)-4,5,6,7-tetrahydro-1H-indol-3-carboxamide maleate] | – | 1.32 | Slight hygroscopicity (hygroscopic weight gain was less than 2% and not less than 0.2%) | – | –
8 | (Z)—N-[2-(diethylamino)ethyl]-2-methyl-7-(1,2-dihydro-5-fluoro-2-oxo-3H-indol-3-ylidene)-4,5,6,7-tetrahydro-1H-indol-3-carboxamide L-mandelate | – | – | Hygroscopicity (hygroscopic weight gain was less than 15% and not less than 2%) | – | 14.7218
9 | CCN(CC)CCNC(=O)c1c(C)[nH]c2c1CCC/C2=C1/C(=O)Nc2ccc(F)cc21.O=C(O)C(O)C(O)C(=O)O [L-tartrate, (Z)—N-[2-(diethylamino)ethyl]-2-methyl-7-(1,2-dihydro-5-fluoro-2-oxo-3H-indol-3-ylidene)-4,5,6,7-tetrahydro-1H-indol-3-carboxamide L-tartrate] | – | 10.6 | Slight hygroscopicity (hygroscopic weight gain was less than 2% and not less than 0.2%) | – | –
10 | CCN(CC)CCNC(=O)c1c(C)[nH]c2c1CCC/C2=C1/C(=O)Nc2ccc(F)cc21.O=S(=O)(O)c1ccccc1 [Benzenesulfonate, (Z)—N-[2-(diethylamino)ethyl]-2-methyl-7-(1,2-dihydro-5-fluoro-2-oxo-3H-indol-3-ylidene)-4,5,6,7-tetrahydro-1H-indol-3-carboxamide benzenesulfonate] | – | 19.2 | Hygroscopicity (hygroscopic weight gain was less than 15% and not less than 2%) | – | –
11 | CCN(CC)CCNC(=O)c1c(C)[nH]c2c1CCC/C2=C1/C(=O)Nc2ccc(F)cc21.O=C(O)/C=C/C(=O)O [Fumarate, (Z)—N-[2-(diethylamino)ethyl]-2-methyl-7-(1,2-dihydro-5-fluoro-2-oxo-3H-indol-3-ylidene)-4,5,6,7-tetrahydro-1H-indol-3-carboxamide fumarate] | – | 0.0168 | Slight hygroscopicity (hygroscopic weight gain was less than 2% and not less than 0.2%) | – | –
12 | CC(O)C(=O)O.CCN(CC)CCNC(=O)c1c(C)[nH]c2c1CCC/C2=C1/C(=O)Nc2ccc(F)cc21 [Lactate, (Z)—N-[2-(diethylamino)ethyl]-2-methyl-7-(1,2-dihydro-5-fluoro-2-oxo-3H-indol-3-ylidene)-4,5,6,7-tetrahydro-1H-indol-3-carboxamide lactate] | 652 | 24 | Hygroscopicity (hygroscopic weight gain was less than 15% and not less than 2%) | – | –
13 | CCN(CC)CCNC(=O)c1c(C)[nH]c2c1CCC/C2=C1/C(=O)Nc2ccc(F)cc21.Cc1ccc(S(=O)(=O)O)cc1 [P-toluenesulfonate, (Z)—N-[2-(diethylamino)ethyl]-2-methyl-7-(1,2-dihydro-5-fluoro-2-oxo-3H-indol-3-ylidene)-4,5,6,7-tetrahydro-1H-indol-3-carboxamide p-toluenesulfonate] | – | 0.419 | Slight hygroscopicity (hygroscopic weight gain was less than 2% and not less than 0.2%) | – | –
14 | CCN(CC)CCNC(=O)c1c(C)[nH]c2c1CCC/C2=C1/C(=O)Nc2ccc(F)cc21.O=C(O)CC(O)(CC(=O)O)C(=O)O [Citrate, (Z)—N-[2-(diethylamino)ethyl]-2-methyl-7-(1,2-dihydro-5-fluoro-2-oxo-3H-indol-3-ylidene)-4,5,6,7-tetrahydro-1H-indol-3-carboxamide citrate] | 838 | 38.2 | Slight hygroscopicity (hygroscopic weight gain was less than 2% and not less than 0.2%) | – | –
15 | CC(=O)O.CCN(CC)CCNC(=O)c1c(C)[nH]c2c1CCC/C2=C1/C(=O)Nc2ccc(F)cc21 [Acetate, (Z)—N-[2-(diethylamino)ethyl]-2-methyl-7-(1,2-dihydro-5-fluoro-2-oxo-3H-indol-3-ylidene)-4,5,6,7-tetrahydro-1H-indol-3-carboxamide acetate] | – | 30.7 | Strong hygroscopicity (hygroscopic weight gain was not less than 15%) | – | –
16 | CCN(CC)CCNC(=O)c1c(C)[nH]c2c1CCC/C2=C1/C(=O)Nc2ccc(F)cc21.O=C(O)CCC(=O)O [Succinate, (Z)—N-[2-(diethylamino)ethyl]-2-methyl-7-(1,2-dihydro-5-fluoro-2-oxo-3H-indol-3-ylidene)-4,5,6,7-tetrahydro-1H-indol-3-carboxamide succinate] | – | 13.4 | Slight hygroscopicity (hygroscopic weight gain was less than 2% and not less than 0.2%) | – | –
